Measurements taken from paper PMC10216305, “Introduction of a Polyethylene Glycol Linker Improves Uptake of ^67Cu-NOTA-Conjugated Lactam-Cyclized Alpha-Melanocyte-Stimulating Hormone Peptide in Melanoma” (Cancers, 2023).
Positions of bridges follow the written chain, without caps; N, C: chain ends. Non-standard residues stand in square brackets, D forms with d. Residues, ends and D or L forms follow the SMILES beside them. *: point of attachment. NOTA = O=C(O)CN1CCN(CC(=O)O)CCN(CC(=O)*)CC1; Nle = CCCC[C@H](N)C(=O)O

Assay: in vivo
Parameters: species or system mice
Conditions: C57, mouse, iv, total radioactivity
Protocol: All animal studies were conducted in compliance with Institutional Animal Care and Use Committee approval. C57 mice were purchased from Charles River Laboratory (Wilmington, NC). B16/F10 melanoma-bearing C57 mice were generated according to our previous publication. Each melanoma-bearing mouse was injected with 0.037 MBq of ^67Cu-NOTA-PEG2Nle-CycMSHhex or ^67Cu-NOTA-GGNle-CycMSHhex via the tail vein. The tumor uptake specificity of ^67Cu-NOTA-PEG2Nle-CycMSHhex and ^67Cu-NOTA-GGNle-CycMSHhex was determined by co-injecting 10 μg (6.07 nmol) of unlabeled NDP-MSH. Mice were sacrificed at 0.5, 2, 4, and 24 h post-injection, and tumors and organs of interest were harvested, weighed, and counted. The blood value was taken as 6.5% of the whole-body weight.

[1] = 0.037 MBq, Kidneys uptake (renal uptake)
[2] = 0.037 MBq, Normal organ uptake, except for kidney uptake
[3] = 0.037 MBq, Uptake ratio Tumor/blood
[4] = 0.037 MBq, Uptake ratio Tumor/kidney
[5] = 0.037 MBq, Uptake ratio Tumor/liver
[6] = 0.037 MBq, Uptake ratio Tumor/lung
[7] = 0.037 MBq, Uptake ratio Tumor/muscle
[8] = 0.037 MBq, Tumor/liver ratio as times the tumor/liver ratio of ^67Cu-NOTA-GGNle-CycMSHhex

CCCC[C@H](NC(=O)CNC(=O)CNC(=O)CN1CCN(CC(=O)O)CCN(CC(=O)O)CC1)C(=O)N[C@H]1CC(=O)NCCCC[C@@H](C(N)=O)NC(=O)[C@H](Cc2c[nH]c3ccccc23)NC(=O)[C@H](CCCNC(=N)N)NC(=O)[C@@H](Cc2ccccc2)NC(=O)[C@H](Cc2c[nH]cn2)NC1=O [^67Cu-NOTA-GGNle-CycMSHhex, ^67Cu-NOTA-GlyGlyNle-CycMSHhex, metal not drawn] ({NOTA}-GG[Nle]DH[dF]RWK-NH2; lactam 4-9)
tissue uptake dose at 0.5 h (0.037 MBq): 1.46 ± 0.49 %ID
tissue uptake dose at 2 h (0.037 MBq): 1.3 ± 0.27 %ID
tissue uptake dose at 4 h (0.037 MBq): 2.7 ± 0.26 %ID
tissue uptake dose at 24 h (0.037 MBq): 0.94 ± 0.32 %ID
tissue uptake at 0.5 h (0.037 MBq, Blood uptake): 1.22 ± 0.08 %ID/g
tissue uptake at 4 h (0.037 MBq, Blood uptake): 0.06 ± 0.07 %ID/g
tissue uptake at 0.5 h (0.037 MBq, Bone uptake): 0.68 ± 0.1 %ID/g
tissue uptake at 4 h (0.037 MBq, Bone uptake): 0.06 ± 0.06 %ID/g
tissue uptake at 4 h (0.037 MBq, Brain uptake): 0.02 ± 0.03 %ID/g
tissue uptake at 24 h (0.037 MBq, Brain uptake): 0.02 ± 0.02 %ID/g
tissue uptake at 0.5 h [1]: 7.18 ± 2.63 %ID/g
tissue uptake at 2 h [1]: 5.08 ± 1.52 %ID/g
tissue uptake at 4 h [1]: 4.21 ± 0.92 %ID/g
tissue uptake at 24 h [1]: 1.19 ± 0.28 %ID/g
tissue uptake at 0.5 h (0.037 MBq, Liver uptake): 1.15 ± 0.07 %ID/g
tissue uptake at 2 h (0.037 MBq, Liver uptake): 1.49 ± 0.56 %ID/g
tissue uptake at 24 h (0.037 MBq, Liver uptake): 0.82 ± 0.12 %ID/g
tissue uptake at 2 h [2]: < 2 %ID/g
tissue uptake at 2 h (0.037 MBq, Pancreas uptake): 0.12 ± 0.08 %ID/g
tissue uptake at 24 h (0.037 MBq, Pancreas uptake): 0.02 ± 0.01 %ID/g
tissue uptake at 24 h (0.037 MBq, Skin uptake): 0.02 ± 0.01 %ID/g
tissue uptake at 0.5 h (0.037 MBq, Spleen uptake): 0.52 ± 0.32 %ID/g
tissue uptake at 4 h (0.037 MBq, Spleen uptake): 0.12 ± 0.08 %ID/g
tissue uptake at 0.5 h (0.037 MBq, Stomach uptake): 1.53 ± 0.53 %ID/g
tissue uptake at 2 h (0.037 MBq, Stomach uptake): 0.81 ± 0.14 %ID/g
tissue uptake at 0.5 h (0.037 MBq, Tumor uptake): 16.6 ± 1.4 %ID/g
tissue uptake at 4 h (0.037 MBq, Tumor uptake): 8.79 ± 1.31 %ID/g
tissue to tissue ratio at 0.5 h [3]: 13.6
tissue to tissue ratio at 2 h [3]: 389
tissue to tissue ratio at 4 h [3]: 146
tissue to tissue ratio at 24 h [3]: 492
tissue to tissue ratio at 0.5 h [4]: 2.31
tissue to tissue ratio at 2 h [4]: 2.29
tissue to tissue ratio at 4 h [4]: 2.09
tissue to tissue ratio at 24 h [4]: 4.13
tissue to tissue ratio at 0.5 h [5]: 14.4
tissue to tissue ratio at 2 h [5]: 7.83
tissue to tissue ratio at 4 h [5]: 8.62
tissue to tissue ratio at 24 h [5]: 6
tissue to tissue ratio at 0.5 h [6]: 30.7
tissue to tissue ratio at 2 h [6]: 28.4
tissue to tissue ratio at 4 h [6]: 23.8
tissue to tissue ratio at 24 h [6]: 18.2
tissue to tissue ratio at 0.5 h [7]: 32.5
tissue to tissue ratio at 2 h [7]: 292
tissue to tissue ratio at 4 h [7]: 879
tissue to tissue ratio at 24 h [7]: 492
tissue uptake dose at 2 h: 1.48 ± 0.17 %ID
tissue to tissue ratio at 2 h (Uptake ratio Tumor/kidney): 0.19
tissue to tissue ratio at 2 h (Uptake ratio Tumor/liver): 0.92
tissue to tissue ratio at 2 h (Uptake ratio Tumor/lung): 2.44

CCCC[C@H](NC(=O)COCCOCCNC(=O)CN1CCN(CC(=O)O)CCN(CC(=O)O)CC1)C(=O)N[C@H]1CC(=O)NCCCC[C@@H](C(N)=O)NC(=O)[C@H](Cc2c[nH]c3ccccc23)NC(=O)[C@H](CCCNC(=N)N)NC(=O)[C@@H](Cc2ccccc2)NC(=O)[C@H](Cc2c[nH]cn2)NC1=O [^67Cu-NOTA-PEG2Nle-CycMSHhex, ^67Cu-1,4,7-triazacyclononane-1,4,7-triyl-triacetic acid-polyethylene glycol-Nle-c[Asp-His-DPhe-Arg-Trp-Lys]-CONH2, metal not drawn]
tissue uptake dose at 0.5 h (0.037 MBq): 0.83 ± 0.09 %ID
tissue uptake dose at 2 h (0.037 MBq): 0.95 ± 0.16 %ID
tissue uptake dose at 24 h (0.037 MBq): 0.77 ± 0.12 %ID
tissue uptake at 0.5 h (0.037 MBq, Blood uptake): 0.63 ± 0.26 %ID/g
tissue uptake at 0.5 h (0.037 MBq, Bone uptake): 0.6 ± 0.35 %ID/g
tissue uptake at 0.5 h (0.037 MBq, Brain uptake): 0.04 ± 0.02 %ID/g
tissue uptake at 24 h (0.037 MBq, Brain uptake): 0.04 ± 0.03 %ID/g
tissue uptake at 0.5 h (0.037 MBq, Heart uptake): 0.58 ± 0.18 %ID/g
tissue uptake at 2 h (0.037 MBq, Heart uptake): 0.79 ± 0.06 %ID/g
tissue uptake at 4 h (0.037 MBq, Heart uptake): 0.34 ± 0.08 %ID/g
tissue uptake at 0.5 h [1]: 6.43 ± 1.31 %ID/g
tissue uptake at 2 h [1]: 6.34 ± 1.63 %ID/g
tissue uptake at 4 h [1]: 2.6 ± 0.79 %ID/g
tissue uptake at 0.5 h (0.037 MBq, Liver uptake): 0.95 ± 0.19 %ID/g
tissue uptake at 2 h (0.037 MBq, Liver uptake): 1.09 ± 0.14 %ID/g
tissue uptake at 4 h (0.037 MBq, Liver uptake): 1.41 ± 0.26 %ID/g
tissue uptake at 24 h (0.037 MBq, Liver uptake): 0.84 ± 0.15 %ID/g
tissue uptake at 0.5 h (0.037 MBq, Lung uptake): 0.76 ± 0.16 %ID/g
tissue uptake at 4 h (0.037 MBq, Lung uptake): 0.62 ± 0.18 %ID/g
tissue uptake at 0.5 h (0.037 MBq, Muscle uptake): 0.48 ± 0.12 %ID/g
tissue uptake at 2 h [2]: < 2 %ID/g
tissue uptake at 4 h [2]: < 2.6 %ID/g
tissue uptake at 0.5 h (0.037 MBq, Skin uptake): 1.77 ± 0.28 %ID/g
tissue uptake at 4 h (0.037 MBq, Skin uptake): 0.18 ± 0.07 %ID/g
tissue uptake at 0.5 h (0.037 MBq, Spleen uptake): 0.37 ± 0.1 %ID/g
tissue uptake at 0.5 h (0.037 MBq, Stomach uptake): 1.13 ± 0.36 %ID/g
tissue uptake at 0.5 h (0.037 MBq, Tumor uptake): 8.83 ± 2.19 %ID/g
tissue uptake at 4 h (0.037 MBq, Tumor uptake): 24.1 ± 1.83 %ID/g
tissue uptake at 24 h (0.037 MBq, Tumor uptake): 9.13 ± 1.66 %ID/g
tissue to tissue ratio at 2 h [8]: 3.3
tissue to tissue ratio at 4 h [8]: 2
tissue to tissue ratio at 24 h [8]: 1.8
tissue to tissue ratio at 4 h [3]: 482
tissue to tissue ratio at 24 h [3]: 456
tissue to tissue ratio at 0.5 h [4]: 1.37
tissue to tissue ratio at 2 h [4]: 4.41
tissue to tissue ratio at 4 h [4]: 9.27
tissue to tissue ratio at 24 h [4]: 10.1
tissue to tissue ratio at 0.5 h [5]: 9.29
tissue to tissue ratio at 2 h [5]: 25.7
tissue to tissue ratio at 4 h [5]: 17.1
tissue to tissue ratio at 0.5 h [6]: 11.6
tissue to tissue ratio at 2 h [6]: 52.8
tissue to tissue ratio at 4 h [6]: 38.9
tissue to tissue ratio at 24 h [6]: 26.1
tissue to tissue ratio at 0.5 h [7]: 18.4
tissue to tissue ratio at 2 h [7]: 34.5
tissue to tissue ratio at 4 h [7]: 803
tissue to tissue ratio at 24 h [7]: 913
tissue uptake dose at 2 h: 2.09 ± 0.96 %ID
tissue to tissue ratio at 2 h (Uptake ratio Tumor/kidney): 0.34
tissue to tissue ratio at 2 h (Uptake ratio Tumor/liver): 0.98
tissue to tissue ratio at 2 h (Uptake ratio Tumor/lung): 2.44
tissue to tissue ratio at 2 h (Uptake ratio Tumor/muscle): 166
